Laboratory results from patent publication US8226943B2, “Antibodies to notch receptors” (OncoMed Pharmaceuticals, Inc., priority 2008, dated 2012).

How the values were obtained:
PE13 breast tumors = experiment: Microarray analysis of PE13 breast tumors treated with taxol or 59R1 plus taxol; type: in vivo, mice; conditions: PE13, 59R1 Taxol vs. Taxol
Description: In addition to investigating the effects of 59R1 in tumors and the effect on CSC frequency, gene changes were studied following 59R1 treatment in combination with taxol. The experiment was performed in PE13 breast tumors where a decrease in CSC frequency after treatment with 59R1 alone or 59R1 plus taxol treatment had previously been observed (and described herein). Microarray analysis was performed on tumors from the same experiment where limiting dilution analyses of PE13 were carried out for CSC quantification (FIG. 19). Animals bearing PE13 breast tumors were treated three weeks with 59R1 plus taxol, control and taxol prior to harvesting for microarray analysis. Mean differential expression values for taxol vs. control and 59R1 plus taxol vs. taxol treated animals (3 animals per group) were calculated.

[1] = tested on: colon tumor xenograft line OMP-C8; experiment: OMP-C8 colon tumor xenograft growth; type: in vivo, NOD/SCID mice; conditions: established tumors, 15 mg/kg once a week
Description: (§1) The 59R1 IgG2 antibody was also tested in vivo in the breast tumor xenograft lines OMP-B34, OMP-B39, OMP-B44, PE13, and UM-T1, the pancreas tumor xenograft line OMP-PN8, and the colon tumor xenograft line OMP-C8. These tumor xenograft lines were established by adhering to procedures described in Al-Hajj et al., 2003, Proc. Natl. Acad. Sci. USA, 100:3983-3988. Female NOD/SCID immuno-compromised mice 7-10 weeks old were used for the establishment of the breast tumor xenografts and male NOD/SCID mice were used for the OMP-Pn8 and OMP-C8 tumor-models (Harlan, Indianapolis, Ind.). The 59R1 IgG2 antibody was also tested in vivo in a Colo-205 colon tumor xenograft model. Female immunodeficient bg/nu XID mice on a Swiss CD-1 background were used for the Colo-205 xenograft tumor model. In case of the breast cancer models, slow-releasing estrogen pellets (0.36 mg) had to be implanted. Mice were subcutaneously injected on the right flank with 50,000 (OMP-B34, OMP-B39, OMP-B44, PE13, and UM-T1) or 1×10^7 (Colo-205) viable cells, respectively, in a mixture of PBS (without magnesium or calcium) and Matrigel at a 1:1 ratio. […] Antibodies were administered weekly and tumors measured twice weekly. […] Tumor volume was calculated as described Al-Hajj et al. (2003). Data are expressed as the mean and the mean±S.E.M. Group means were compared using Student's two-tailed, unpaired t-test. […]

[2] = tested on: stroma from the xenograft models Colo205, B29, B34, B44, PE13, T1, C8, and PN8; experiment: TaqMan analysis of stromal gene expression in xenograft models; type: in vivo, mice
Source text: The expression levels in the stroma from the xenograft models Colo205, B29, B34, B44, PE13, T1 (without estrogen treatment), T1 (with estrogen treatment), C8, and PN8 of selected genes that had been identified in the microarray analysis as being regulated by treatment with 59R1 (heyl, notch3, rgs5, angpt1, and angpt2) were further analyzed by TaqMan® analysis. The results are shown in FIGS. 12A (heyl), 12B (notch3), 12C (rgs5), 12D (angpt1), and 12E (angpt2).

[3] = tested on: breast tumor xenograft line OMP-B44; experiment: OMP-B44 breast tumor xenograft growth; type: in vivo, NOD/SCID mice; conditions: established tumors, 15 mg/kg once a week
Description: as §1

M4 melanoma tumor cells = experiment: M4 melanoma xenograft growth; type: in vivo, NOD-SCID mice; conditions: 10 mg/kg twice per week
Description: M4 melanoma tumor cells (10,000 cells per mouse) were injected subcutaneously into the flank region of NOD-SCID mice. Tumors were allowed to grow for 25 days until they had reached an average volume of ˜80 mm^3. Animals were randomized into treatment groups (n=10/group) and treatments were initiated. One group received a control antibody (1B711) at 10 mg/kg twice per week and one group received 59R1 at 10 mg/kg twice per week. Tumor volumes were measured on the indicated days.

[4] = tested on: PN4 pancreatic tumor cells; experiment: PN4 pancreatic tumor xenograft growth; type: in vivo, NOD/SCID mice
Description: In another experiment, anti-Notch2/3 antibodies were tested for an effect on pancreatic tumor growth. NOD/SCID mice were injected with 30,000 PN4 pancreatic tumor cells sub-cu in the right flank, and tumors were allowed to grow until they had reached an average volume of 100 mm^3. Animals were randomized and dosing of anti-Notch2/3 antibody 59R1 or control antibody 1B711 was initiated. Antibodies were dosed at 15 mg/kg given once per week.
PN4 pancreatic tumor cells (50,000 cells per mouse) were injected subcutaneously into the flank region of Nod-Scid mice. Tumors were allowed to grow for 27 days until they had reached an average volume of ˜120 mm^3. Animals were randomized into four treatment groups (n=10/group) and treatments were initiated. One group received a control antibody (1B711) at 10 mg/kg twice per week; one group received gemcitabine at 40 mg/kg once per week plus the control antibody at 10 mg/kg twice per week; one group received 59R1 at 10 mg/kg twice per week, and the fourth group received the combination of 59R1 at 10 mg/kg twice per week and gemcitabine 40 mg/kg once per week. Tumor volumes were measured on the indicated days.

human Notch2 = human Notch2 (Homo sapiens, UniProt Q04721); experiment: DLL4-Fc induced receptor activation in transfected PC3 cells, human Notch2; type: cell-based; design: expressed in transfected cells; conditions: immobilized DLL4-Fc
Chain of human Notch2 (Q04721 26-2471): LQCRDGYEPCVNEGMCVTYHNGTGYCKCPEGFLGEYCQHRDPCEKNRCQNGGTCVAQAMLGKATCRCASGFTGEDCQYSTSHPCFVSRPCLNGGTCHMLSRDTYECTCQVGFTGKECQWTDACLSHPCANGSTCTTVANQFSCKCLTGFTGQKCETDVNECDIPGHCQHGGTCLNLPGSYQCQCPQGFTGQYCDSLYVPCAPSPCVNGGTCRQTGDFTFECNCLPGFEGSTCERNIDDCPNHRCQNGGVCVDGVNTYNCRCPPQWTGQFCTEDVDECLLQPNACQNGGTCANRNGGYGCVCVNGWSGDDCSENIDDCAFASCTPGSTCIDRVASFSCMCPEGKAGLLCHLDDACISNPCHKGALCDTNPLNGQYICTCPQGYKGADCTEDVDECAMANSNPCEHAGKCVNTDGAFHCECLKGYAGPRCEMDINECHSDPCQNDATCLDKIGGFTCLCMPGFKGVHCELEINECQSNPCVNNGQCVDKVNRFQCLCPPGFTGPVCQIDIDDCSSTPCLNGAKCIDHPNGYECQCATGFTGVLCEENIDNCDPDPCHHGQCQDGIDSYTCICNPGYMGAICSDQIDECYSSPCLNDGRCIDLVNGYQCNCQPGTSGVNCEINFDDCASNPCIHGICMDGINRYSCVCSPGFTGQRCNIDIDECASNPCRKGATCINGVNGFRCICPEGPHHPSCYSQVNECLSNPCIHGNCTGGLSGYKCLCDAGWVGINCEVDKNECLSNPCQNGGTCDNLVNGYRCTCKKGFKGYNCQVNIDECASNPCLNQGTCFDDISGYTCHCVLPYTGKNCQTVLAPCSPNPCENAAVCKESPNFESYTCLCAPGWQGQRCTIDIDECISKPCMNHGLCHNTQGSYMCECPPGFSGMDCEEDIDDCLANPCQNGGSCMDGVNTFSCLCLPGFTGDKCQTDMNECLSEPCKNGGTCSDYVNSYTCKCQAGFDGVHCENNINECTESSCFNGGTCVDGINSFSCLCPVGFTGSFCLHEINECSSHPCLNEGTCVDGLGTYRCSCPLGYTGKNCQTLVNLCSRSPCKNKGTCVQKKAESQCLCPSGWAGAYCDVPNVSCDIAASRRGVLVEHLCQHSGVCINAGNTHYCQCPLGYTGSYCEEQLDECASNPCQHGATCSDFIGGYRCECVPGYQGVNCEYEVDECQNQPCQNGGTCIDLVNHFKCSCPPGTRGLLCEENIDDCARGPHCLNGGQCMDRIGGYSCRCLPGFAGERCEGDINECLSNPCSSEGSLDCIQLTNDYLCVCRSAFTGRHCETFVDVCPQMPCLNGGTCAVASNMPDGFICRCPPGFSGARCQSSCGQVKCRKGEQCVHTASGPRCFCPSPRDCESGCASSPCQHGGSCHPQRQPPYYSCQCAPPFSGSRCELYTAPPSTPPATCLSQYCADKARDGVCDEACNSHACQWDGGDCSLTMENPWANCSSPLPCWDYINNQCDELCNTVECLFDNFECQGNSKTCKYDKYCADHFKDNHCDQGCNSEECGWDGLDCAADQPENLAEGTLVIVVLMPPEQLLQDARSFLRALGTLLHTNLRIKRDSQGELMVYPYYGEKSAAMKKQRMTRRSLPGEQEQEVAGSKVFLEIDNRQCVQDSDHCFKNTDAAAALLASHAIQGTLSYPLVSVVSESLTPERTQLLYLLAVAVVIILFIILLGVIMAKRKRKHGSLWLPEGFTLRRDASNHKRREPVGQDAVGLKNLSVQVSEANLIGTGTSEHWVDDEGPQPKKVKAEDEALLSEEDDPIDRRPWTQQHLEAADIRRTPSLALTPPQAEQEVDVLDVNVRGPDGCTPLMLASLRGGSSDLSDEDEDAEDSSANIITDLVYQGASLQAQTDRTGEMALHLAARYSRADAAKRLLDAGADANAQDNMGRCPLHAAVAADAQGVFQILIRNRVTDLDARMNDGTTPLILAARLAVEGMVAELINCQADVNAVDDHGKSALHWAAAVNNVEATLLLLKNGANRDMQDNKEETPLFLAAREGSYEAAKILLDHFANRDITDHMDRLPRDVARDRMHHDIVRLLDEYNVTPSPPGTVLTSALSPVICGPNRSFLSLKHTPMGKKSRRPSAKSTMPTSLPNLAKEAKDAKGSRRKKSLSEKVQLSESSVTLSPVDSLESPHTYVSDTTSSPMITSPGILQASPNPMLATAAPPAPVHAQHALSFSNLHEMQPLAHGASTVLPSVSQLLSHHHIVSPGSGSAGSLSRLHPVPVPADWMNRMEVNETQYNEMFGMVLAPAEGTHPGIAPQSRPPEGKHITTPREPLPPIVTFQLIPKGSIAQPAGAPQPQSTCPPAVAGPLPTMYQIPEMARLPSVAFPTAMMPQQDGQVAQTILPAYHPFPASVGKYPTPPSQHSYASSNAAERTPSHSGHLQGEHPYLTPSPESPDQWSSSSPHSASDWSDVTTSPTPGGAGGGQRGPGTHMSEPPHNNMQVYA
Description: (§2) 59R5 was determined to have similar activity in blocking Notch2 and Notch3 signaling as 59R1. Receptor activation was determined in luciferase-based assays. PC3 tumor cells were transiently transfected with a human or mouse Notch receptor (human Notch2, murine Notch2, human Notch3, or murine Notch3) and […] inducible reporter construct. Transfected cells were incubated with different concentrations of 59R1 or 59R5 antibody in the presence of passively immobilized DLL4-Fc protein. Notch receptor activation was determined by measuring luciferase activity.

murine Notch3 = experiment: DLL4-Fc induced receptor activation in transfected PC3 cells, murine Notch3; type: cell-based, mouse; conditions: immobilized DLL4-Fc
Description: as §2

[5] = each of the various tumor types, relative to control

Question: Which “Fold BMPR1B” value (PE13 breast tumors) does the source give for “59R1: human IgG2 antibody binding Notch2 and Notch3; heavy and light chain SEQ ID NO:16 and 18; ATCC PTA-9547” here?
Answer: The value was −4.3.

Question: And the “Fold BNIP3” value (PE13 breast tumors)?
Answer: The value was 1.8.

Question: And the “Fold EGLN3” value (PE13 breast tumors)?
Answer: The value was 11.9.

Question: And the “Fold HSPB6” value (PE13 breast tumors)?
Answer: Its value is −1.8.

Question: What about the “Fold ITGAM” value (PE13 breast tumors) of the same substance?
Answer: Its value is −2.5.

Question: And the “Fold LHX8” value (PE13 breast tumors)?
Answer: The value was −4.4.

Question: And the “Fold NDRG1” value (PE13 breast tumors)?
Answer: Its value is 6.4.

Question: And the “Fold RARRES1” value (PE13 breast tumors)?
Answer: The value was −2.2.

Question: What about the “Fold RARRES3” value (PE13 breast tumors) of the same substance?
Answer: The value was −1.7.

Question: What about the “Fold RBP2” value (PE13 breast tumors) of the same substance?
Answer: The value was −2.2.

Question: And the “Fold XAF1” value (PE13 breast tumors)?
Answer: The value was −1.5.

Question: What about the “C8 tumor growth relative to LZ1 control antibody” value [1] of the same substance?
Answer: Its value is “inhibit tumor growth”.

Question: What about the “effect on down-regulation of angiopoietin-1 and angiopoietin-2 in the stroma of the T1 tumor” value ([2]; absence of estrogen treatment (T1 ne)) of the same substance?
Answer: Its value is “abrogated”.

Question: And the “angiopoietin-1 (angpt1) expression in stroma (TaqMan)” value ([2]; breast cancer models)?
Answer: The value was “down-regulated in the stroma of a number of the breast cancer models”.

Question: What about the “angiopoietin-2 (angpt2) expression in stroma (TaqMan)” value ([2]; breast cancer models) of the same substance?
Answer: The value was “down-regulated in the stroma of a number of the breast cancer models”.

Question: What about the “notch3 expression in stroma (TaqMan)” value [2, 5] of the same substance?
Answer: Its value is “down-regulated”.

Question: And the “rgs5 expression in stroma (TaqMan)” value [2, 5]?
Answer: Its value is “down-regulated”.

Question: What about the “angpt1 and angpt2 expression in the stroma of the T1 model” value ([2]; estrogen treatment used (T1 e)) of the same substance?
Answer: The value was “down-regulated”.

Question: What about the “heyl expression in stroma (TaqMan)” value ([2]; xenograft models, relative to control) of the same substance?
Answer: The value was “downregulated in the stroma of each of the xenograft models except B34”.

Question: What about the “B44 breast cancer growth relative to control antibody” value [3] of the same substance?
Answer: The value was “inhibit breast cancer growth”.

Question: What about the “M4 melanoma tumor growth” value (M4 melanoma tumor cells) of the same substance?
Answer: Its value is “inhibited”.

Question: And the “PN4 tumor growth, combination of 59R1 and gemcitabine” value ([4]; 59R1 10 mg/kg twice per week and gemcitabine 40 mg/kg once per week)?
Answer: The value was “inhibited”.

Question: And the “PN4 tumor growth compared to control” value ([4]; established tumors, 15 mg/kg once per week)?
Answer: Its value is “significantly reduced”.

Question: Which results are given for “59R5: human antibody that specifically binds human Notch 2 and human Notch 3; heavy and light chain SEQ ID NO:49 and 18; ATCC PTA-10170”?
Answer: ligand-induced activation of human Notch2 receptor signaling (human Notch2): blocked; ligand-induced activation of murine Notch3 receptor signaling (murine Notch3): blocked
